Measured values taken from patent US7320785B2, “Compositions and methods for modulation of DARPP-32 phosphorylation” (The Rockefeller University, priority 2001, dated 2008).
Where two headings read alike, the source gives them in different places. Marks after values point to notes of the source that are not given here.

Key:
DARPP-32 [1] = test: DARPP-32 phosphorylation in mouse brain slices, immunoblotting with phosphorylation state-specific antibodies; conditions: for Percent Phospho-Ser137 / Percent Phospho-Thr34: 2 min incubation; for Percent Phospho-Thr75: 10 min incubation; for phospho-Thr34 DARPP-32 / phospho-Thr75 DARPP-32: prefrontal cortex slices, n=6; for phospho-Thr34 DARPP-32: 2 min of incubation; for phospho-Thr75 DARPP-32: 10 min of incubation
DARPP-32 [2] = conditions: rat, in vivo; cited from earlier work
[3] = neostriatal slices, compound at 100 μM, vehicle control = 100
[4] = Mus musculus, 2 min, read-out: Percent Phospho-Thr34
[5] = Mus musculus, 10 min, read-out: Percent Phospho-Thr75
[6] = Mus musculus, 2 min, read-out: Percent Phospho-Ser137
[7] = neostriatal slices, compound at 10 μM

For `COc1cc(CC(C)N)c(OC)cc1I.Cl` (racemic) [DOI, (±)-2,5-dimethoxy-4-iodoamphetamine hydrochloride; (±)-1-(2,5 dimethoxy-4-iodophenyl)-2-aminopropane], the “Percent Phospho-Ser137” value (DARPP-32 [1]; [3]) was 158(8.3)* Percent, the “Percent Phospho-Thr34” value (DARPP-32 [1]; [3]) was 144(16.7) Percent and the “Percent Phospho-Thr75” value (DARPP-32 [1]; [3]) was 105(4.5) Percent. For the same compound, the EC50 (DARPP-32 [1]; read-out: EC50 at phospho-Ser137 DARPP-32, neostriatal slices) was 18.2 µM.

For `N[C@@H]1C[C@H]1c1ccccc1` (racemic) [tranylcypromine], the “frontal cortex levels of DARPP-32 immunoreactivity” value (DARPP-32 [2]) is listed as “significant increases”.

With `COc1ccc2[nH]cc(CCN)c2c1` [5-MT, 5-methoxytryptamine] the activity at 100 µM (DARPP-32 [1]; [4]) was 261 ± 31%, the activity at 100 µM (DARPP-32 [1]; [5]) was 76 ± 7% and the “Percent Phospho-Thr34” value (DARPP-32 [1]; [3]) was 261(31.5)* Percent. The “Percent Phospho-Thr75” value (DARPP-32 [1]; [3]) was 76(7.6)* Percent.

With `Clc1cccc(SC2CCNCC2)n1` [Anpirtoline] the activity at 100 µM (DARPP-32 [1]; [6]) was 93%, the activity at 100 µM (DARPP-32 [1]; [4]) was 86% and the activity at 100 µM (DARPP-32 [1]; [5]) was 102%.

With `NCCNS(=O)(=O)c1ccc(Cl)c2ccncc12` [CK1-7] the “Percent Phospho-Ser137” value (DARPP-32 [1]; [3]) was 87(4.0)* Percent, the “Percent Phospho-Thr34” value (DARPP-32 [1]; [3]) was 102(11.5) Percent and the “Percent Phospho-Thr75” value (DARPP-32 [1]; [3]) was 96(10.0) Percent.

In the case of `CN1CCN(C2=Nc3cc(Cl)ccc3Nc3ccccc32)CC1` [Clozapine], the activity at 10 µM (DARPP-32 [1]; [6]) is reported as 105%, the activity at 10 µM (DARPP-32 [1]; [4]) is reported as 124% and the activity at 10 µM (DARPP-32 [1]; [5]) is reported as 101%.

With `CCc1[nH]c2ccc(OC)cc2c1CCN(C)C` [EMDT, 2-ethyl-5-methoxy-N,N-dimethyltryptamine] the EC50 (DARPP-32 [1]; Mus musculus, 2 min, read-out: EC50 for effect on DARPP-32 phosphorylation at Thr34) was 20.5 µM, the EC50 (DARPP-32 [1]; Mus musculus, 10 min, read-out: EC50 for effect on DARPP-32 phosphorylation at Thr75) was 27.4 µM and the “phospho-Thr34 DARPP-32” value (DARPP-32 [1]) was 185±19%. The “phospho-Thr75 DARPP-32” value (DARPP-32 [1]) was 80±17%.

With `O=C(c1ccc(F)cc1)C1CCN(CCn2c(=O)[nH]c3ccccc3c2=O)CC1` [Ketanserin] the activity at 10 µM (DARPP-32 [1]; [6]) was 97%, the activity at 10 µM (DARPP-32 [1]; [4]) was 94% and the activity at 10 µM (DARPP-32 [1]; [5]) was 105%.

With `c1ccc2sc(N3CCN(Cc4ccc5c(c4)OCO5)CC3)nc2c1` [PPB, 2-[1-(4-Piperonyl)piperazinyl]benzothiazole] the “Percent Phospho-Ser137” value (DARPP-32 [1]; [3]) was 108(2.0) Percent, the “Percent Phospho-Thr34” value (DARPP-32 [1]; [3]) was 218(36.1)* Percent and the “Percent Phospho-Thr75” value (DARPP-32 [1]; [3]) was 72(8.8)* Percent. The “phospho-Thr34 DARPP-32” value (DARPP-32 [1]) was 203±15% and the “phospho-Thr75 DARPP-32” value (DARPP-32 [1]) was 84±4%.

For `CCN1CCC[C@H]1CNC(=O)c1c(O)c(Cl)cc(Cl)c1OC` [Raclopride], the activity at 10 µM (DARPP-32 [1]; [6]) was 101%, the activity at 10 µM (DARPP-32 [1]; [4]) was 150% and the activity at 10 µM (DARPP-32 [1]; [5]) was 85%.

In the case of `CNc1cc(NS(=O)(=O)c2ccc(N)cc2)nc(NC)n1` [Ro 07-6790], the “Percent Phospho-Ser137” value (DARPP-32 [1]; [7]) is reported as 105(7.3) Percent, the “Percent Phospho-Thr34” value (DARPP-32 [1]; [7]) is reported as 90(8.7) Percent and the “Percent Phospho-Thr75” value (DARPP-32 [1]; [7]) is reported as 101(12.5) Percent.
